Source: patent US11891601B2, “Method to enhance the transcription regulation of SUPT4H on genes containing repetitive nucleotide sequences” (National Yang-Ming University, priority 2018, dated 2024)

System: R-loops in genes containing lengthy CAG repeats, including mutant HTT
Assay: DIP assay of R-loops in genes with lengthy CAG repeats, including mutant HTT, in murine neuronal cells
Type: cell-based, mouse
Settings: 30 μM tropolone for 12 hours in Hdh cells
Description: Yeast cells were collected after culturing in 2% galactose-containing medium for 12 hours, and then grinded by glass beads in the presence of 300 μl extraction buffer (10 mM Tris-HCl pH 8.0, 10 mM EDTA, 200 mM NaCl, 1% SDS, 2% Triton X-100, 25 units RNase inhibitor). The nucleic acid mixture was subjected to sonication (Bioruptor UCD-200) and extracted by phenol (pH 8.0). Purified chromatin DNA and RNA, with or without RNase H treatment for 90 minutes, was precipitated by monoclonal antibody S9.6 bound to protein G agarose beads. […] The RNA/DNA hybrid (R-loop) signal was analyzed by qPCR and the Quantitative-Comparative CT (MCT) program. In yeast experiments, a pair of primers (Primer-B F and Primer-B R) were used to quantify R-loop signal in the vicinity of CAG repeats and the primer set AMP was used as a control. […] For Hdh^Q7/Q7 and Hdh^Q111/Q111, mouse HTT DIP primer set was used to quantify R-loop signal of the CAG repeating region and Tubal a DIP primer set was included as a control. […]
Please refer to FIG. 7. […] RNA was extracted and analyzed by real-time RT-qPCR to measure the quantity of HTT, SUPT4H and snRNA U6. […] HTT, SUPT4H, TATA-box binding protein (TBP) were measured. […] Analogous to FIG. 7(C), the quantification of HTT protein levels is shown in bottom panel.

O=c1cccccc1O [Tropolone]
R-loops in genes containing lengthy CAG repeats, including mutant HTT: able to increase R-loops
